Drawing on patent US20070275961A1, “Triazolo ' 1, 5-A ! Pyrimidines and Their Use in Medicine” (VERNALIS (CAMBRIDGE) LIMITED., priority 2003, published 2007), this text covers IC50 for 29 molecules.

Broadly, the IC50 is the concentration at which inhibition is half-maximal.

Read-outs that look alike come from different tables or passages of the source. A value given as a limit tells only on which side of the number the result lay.

Holding throughout (assay type): biochemical
For assay [1], the target named is CDK2 enzyme, complexed with cyclin A (Homo sapiens, UniProt P24941). Nature of the assay: CDK2 cyclin dependent kinase assay, phosphorylation of synthetic peptide […] (33P-ATP filtration). Particulars: 0.1 mM ATP. As to the method:
(§1) The assay mixture containing the inhibitor and CDK2 enzyme, complexed with cyclin A (0.4 U/ml) was mixed together in a microtiter plate in a final volume of 50 μl and incubated for 40 min at 30° C. The assay mixture contained 0.1 mM unlabeled ATP, 0.01 μCi/μl ^33P-γ-ATP, 0.03 mM peptide, 0.1 mg/ml BSA, 7.5 mM magnesium acetate, 50 mM HEPES-NaOH, pH 7.5. The reaction was stopped by adding 50 μl of 50 mM phosphoric acid. 90 μl of the mixture were transferred to a pre-wetted 96-well Multiscreen MAPHNOB filtration plate (Millipore) and filtered on a vacuum manifold. The filter plate was washed with three successive additions of 200 μl 50 mM phosphoric acid and then with 100 μl methanol. The filtration plate was dried for 10 min at 65° C., scintillant added and phosphorylated peptide quantified in a scintillation counter (Trilux, PerkinElmer).
HEPES is N-[2-hydroxyethyl]piperazine-N′-[2-ethanesulfonic acid]. BSA is bovine serum albumin.

For a further assay, the target named is T1, PDK1 enzyme (Homo sapiens, UniProt O15530).
T1 sequence (O15530 1-556): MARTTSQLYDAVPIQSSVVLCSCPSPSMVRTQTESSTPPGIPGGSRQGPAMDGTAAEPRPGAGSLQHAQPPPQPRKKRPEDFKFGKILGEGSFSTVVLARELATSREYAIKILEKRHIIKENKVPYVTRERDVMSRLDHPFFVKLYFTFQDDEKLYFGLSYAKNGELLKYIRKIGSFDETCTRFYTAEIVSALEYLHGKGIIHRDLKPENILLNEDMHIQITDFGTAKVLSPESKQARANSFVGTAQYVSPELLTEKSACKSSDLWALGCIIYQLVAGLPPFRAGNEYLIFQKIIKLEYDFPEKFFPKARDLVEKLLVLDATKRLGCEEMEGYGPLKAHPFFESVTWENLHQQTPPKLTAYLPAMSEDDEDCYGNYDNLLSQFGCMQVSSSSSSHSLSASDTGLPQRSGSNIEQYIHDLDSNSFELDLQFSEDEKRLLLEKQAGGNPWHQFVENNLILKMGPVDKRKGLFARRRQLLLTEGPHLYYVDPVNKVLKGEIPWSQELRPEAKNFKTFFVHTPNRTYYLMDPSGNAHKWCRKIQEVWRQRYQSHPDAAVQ
Nature of the assay: PDK1 3'-phosphoinositide-dependent kinase assay, phosphorylation of synthetic peptide (33P-ATP filtration). Particulars: 0.01 mM ATP, read-out: PDK1 IC50. As to the method: as §1, with “and PDK1 enzyme” for “and CDK2 enzyme, complexed with cyclin A (0.4 U/ml)”, “for 60” for “for 40”, “contained 0.01” for “contained 0.1”, “^33P-γ-ATP, 0.075” for “^33P-γ-ATP, 0.03”, “acetate, 0.05 M Tris.HCl,” for “acetate, 50 mM HEPES-NaOH,”, “pH 7.5, 0.5% 2-mercaptoethanol.” for “pH 7.5.”

In a further assay the target is T2, Chk1 (Homo sapiens, UniProt O14757).
T2 sequence (O14757 1-476): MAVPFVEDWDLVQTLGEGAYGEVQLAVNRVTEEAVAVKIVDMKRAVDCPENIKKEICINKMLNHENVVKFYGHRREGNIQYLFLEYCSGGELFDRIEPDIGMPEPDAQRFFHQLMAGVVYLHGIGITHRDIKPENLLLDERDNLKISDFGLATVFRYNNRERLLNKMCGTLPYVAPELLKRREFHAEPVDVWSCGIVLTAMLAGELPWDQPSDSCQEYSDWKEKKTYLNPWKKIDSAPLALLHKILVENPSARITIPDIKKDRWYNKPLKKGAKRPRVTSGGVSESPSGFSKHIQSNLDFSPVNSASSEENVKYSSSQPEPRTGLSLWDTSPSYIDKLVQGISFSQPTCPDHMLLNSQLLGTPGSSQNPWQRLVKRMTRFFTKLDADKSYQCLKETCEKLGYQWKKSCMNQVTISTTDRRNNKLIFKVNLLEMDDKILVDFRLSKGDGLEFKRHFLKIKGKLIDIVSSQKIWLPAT
Nature of the assay: Chk1 kinase assay, phosphorylation of Chktide (33P-ATP filtration). The settings on record: 0.01 mM ATP, read-out: Chk1 IC50. As to the method: Assays for the Chk1 kinase activity were carried out by monitoring the phosphorylation of a synthetic peptide Chktide with the amino acid sequence, […]. The assay mixture containing the inhibitor and Chk1 enzyme was mixed together in a microtiter plate in a final volume of 50 μl and incubated for 40 minutes at 30° C.
The assay mixture contained 0.01 mM unlabeled ATP, 0.5 μCi ^33P-γ-ATP, 30 μM Chktide, 0.1 mg/ml BSA, 50 mM Hepes-NaOH pH 7.5 and 11 nM GST-Chk1 enzyme. The reaction was stopped by adding 50 μl of 50 mM phosphoric acid. 90 μl of the mixture was transferred to a pre-wetted 96-well Multiscreen MAPHNOB filtration plate (Millipore) and filtered on a vacuum manifold. The filter plate was washed with three successive additions of 200 μl 50 mM phosphoric acid and then with 100 μl methanol. The filtration plate was dried for 10 min at 65° C., scintillant added and phosphorylated peptide quantified in a scintillation counter (Trilux, PerkinElmer).

As to `CCN(c1cc(Nc2ccc(S(C)(=O)=O)cc2)n2ncnc2n1)C(C)C` [Example 85], the IC50 was 0.86 µM in assay [1] (Table 2), 2.89 µM on PDK1 enzyme (Table 2) and over 200 µM on Chk1 (Table 2).

Turning to `Cc1cccc(-c2cc(Nc3ccc(C#N)cc3)n3ncnc3n2)c1` [Example 29], the IC50 is 57.5 µM in assay [1] (Table 1), over 200 µM on PDK1 enzyme (Table 1) and over 200 µM at Chk1 (Table 1).

As for `CNc1cc(Nc2ccc(S(N)(=O)=O)cc2)n2ncnc2n1` [Example 66], the IC50 in assay [1] (Table 2) is 4.19 µM; on PDK1 enzyme (Table 2), over 200 µM; on Chk1 (Table 2) it was over 200 µM.

Consider `Clc1cc(NCc2ccncc2)n2ncnc2n1` [Example 56], for which the IC50 was 43.3 µM in assay [1] (Table 1), over 200 µM at PDK1 enzyme (Table 1) and over 200 µM on Chk1 (Table 1).

In the case of `CCN(CC)CCNC(=O)c1ccc(Nc2cc(C(C)C)n3ncnc3n2)cc1` [Example 122], the IC50 in assay [1] (Table 3) was over 200 µM; at PDK1 enzyme (Table 3), over 200 µM; at Chk1 (Table 3) it was 22.9 µM.

`CCOC(=O)c1ccc(Nc2cc(Cl)nc3ncnn23)cc1` [Example 53]: the IC50 (in assay [1] (Table 1); at PDK1 enzyme (Table 1); at Chk1 (Table 1)) was over 200 µM in each case.

With `NS(=O)(=O)c1ccc(Nc2cc(NCC3CCCCC3)nc3ncnn23)cc1` [Example 59], the IC50 in assay [1] (Table 2) came out at 3.86 µM; on PDK1 enzyme (Table 2), 118 µM; at Chk1 (Table 2), 117 µM.

Take `Cc1cccc(-c2cc(Nc3ccc(S(N)(=O)=O)cc3)n3ncnc3n2)c1` [Example 3, 7-(4-Aminosulfonylphenylamino)-5-(3-methylphenyl)triazolo[1,5-a]pyrimidine]: the IC50 was 1.82 µM in assay [1] (Table 1), over 200 µM at PDK1 enzyme (Table 1) and over 200 µM on Chk1 (Table 1).

For `CCN(CC)c1cc(Nc2ccc(S(C)(=O)=O)cc2)n2ncnc2n1` [Example 65], the IC50 in assay [1] (Table 2) was 0.94 µM; on PDK1 enzyme (Table 2), over 200 µM; at Chk1 (Table 2), over 200 µM.

Take `NC(=O)c1ccc(Nc2cc(-c3cccc(OCc4cccnc4)c3)n3ncnc3n2)cc1` [Example 145]: the values for the IC50 (in assay [1] (Table 4); on PDK1 enzyme (Table 4); at Chk1 (Table 4)) were 23.1 µM, 1.73 µM and 9.86 µM, respectively.

For the molecule `Fc1cccc(-c2cc(Nc3ccc(N4CCOCC4)cc3)nc3ncnn23)c1` [Example 113], the IC50 in assay [1] (Table 3) was over 200 µM; on PDK1 enzyme (Table 3), 46.5 µM; at Chk1 (Table 3), 5.62 µM.

Take `N#Cc1ccc(Nc2cc(-c3cccc(F)c3)n3ncnc3n2)cc1` [Example 112]: the values for the 50% inhibitory concentration (IC50) (in assay [1] (Table 3); at PDK1 enzyme (Table 3); on Chk1 (Table 3)) were 119 µM, 51.6 µM and over 200 µM, respectively.

Turning to `Oc1ccccc1-c1cc(Nc2ccc3cn[nH]c3c2)n2ncnc2n1` [Example 60], the IC50 in assay [1] (Table 2) is 1.91 µM; at PDK1 enzyme (Table 2), over 200 µM; at Chk1 (Table 2) it was over 200 µM.

For `CCN(CC)CCNC(=O)c1ccc(Nc2cc(-c3ccc4c(c3)OCO4)n3ncnc3n2)cc1` [Example 140], the values for the IC50 (in assay [1] (Table 3); on PDK1 enzyme (Table 3); at Chk1 (Table 3)) were over 200 µM, 1.8 µM and 1 µM, respectively.

For `CCN(CC)CCNC(=O)c1ccc(Nc2cc(Cc3ccccc3OC)n3ncnc3n2)cc1` [Example 125], the IC50 in assay [1] (Table 3) is over 200 µM; on PDK1 enzyme (Table 3) it was over 200 µM; at Chk1 (Table 3), 37.4 µM.

Take `CC(C)c1cc(Nc2ccc(S(C)(=O)=O)cc2)n2ncnc2n1` [Example 78]: the IC50 in assay [1] (Table 2) was 7.42 µM; at PDK1 enzyme (Table 2), over 200 µM; at Chk1 (Table 2) it was over 200 µM.

As for `NS(=O)(=O)c1ccc(Nc2cc(NC(CCO)c3ccccc3)nc3ncnn23)cc1` (stereo not drawn) [Example 10], the IC50 was 5.74 µM in assay [1] (Table 1), over 200 µM at PDK1 enzyme (Table 1) and over 200 µM on Chk1 (Table 1).

As to `Clc1cc(NCC2CCNCC2)n2ncnc2n1` [Example 81], the IC50 in assay [1] (Table 2) is 177 µM; at PDK1 enzyme (Table 2), over 200 µM; on Chk1 (Table 2), over 200 µM.

As for `CCN(CC)c1cc(Nc2ccc(C(N)=O)cc2)n2ncnc2n1` [Example 92], the figures for the 50% inhibitory concentration (IC50) (in assay [1] (Table 2); on PDK1 enzyme (Table 2); on Chk1 (Table 2)) were 1.49 µM, over 200 µM and over 200 µM, respectively.

Turning to `CS(=O)(=O)c1ccc(CNc2cc(Cl)nc3ncnn23)cc1` [Example 95], the results for the IC50 (in assay [1] (Table 2); on PDK1 enzyme (Table 2); at Chk1 (Table 2)) were 76.2 µM, over 200 µM and over 200 µM, respectively.

In the case of `NS(=O)(=O)c1ccc(Nc2cc(Cl)nc3ncnn23)cc1` [Example 1, 7-(4-Aminosulfonylphenylamino)-5-chlorotriazolol[1,5-a]pyrimidine], the IC50 in assay [1] (Table 1) was 20.1 µM; on PDK1 enzyme (Table 1) it was over 200 µM; at Chk1 (Table 1) it was over 200 µM.

As for `Clc1cc(Nc2ccc3cn[nH]c3c2)n2ncnc2n1` [Example 48], the IC50 was 13.5 µM in assay [1] (Table 1), over 200 µM at PDK1 enzyme (Table 1) and over 200 µM at Chk1 (Table 1).

For `NC(=O)c1cccc(Nc2cc(-c3cccc(F)c3)n3ncnc3n2)c1` [Example 134], the results for the IC50 (in assay [1] (Table 3); at PDK1 enzyme (Table 3); at Chk1 (Table 3)) were over 200 µM, 8.09 µM and 23.2 µM, respectively.

Consider `Cc1ccc(-c2cc(Nc3ccc(C(N)=O)cc3)nc3ncnn23)cc1` [Example 138], for which the IC50 was over 200 µM in assay [1] (Table 3), 4.21 µM at PDK1 enzyme (Table 3) and 26.1 µM at Chk1 (Table 3).

With `NS(=O)(=O)c1ccc(CNc2cc(OC3CCCCC3)nc3ncnn23)cc1` [Example 15], the IC50 is 11.3 µM in assay [1] (Table 1), over 200 µM on PDK1 enzyme (Table 1) and over 200 µM at Chk1 (Table 1).

For `NS(=O)(=O)c1ccc(Nc2cc(N3CCCC(O)C3)nc3ncnn23)cc1` (stereo not drawn) [Example 67], the results for the IC50 (in assay [1] (Table 2); on PDK1 enzyme (Table 2); on Chk1 (Table 2)) were 2.3 µM, over 200 µM and over 200 µM, respectively.

Consider `NCCCOc1cccc(-c2cc(Nc3ccc(C(N)=O)cc3)nc3ncnn23)c1` [Example 147], for which the IC50 amounted to 71.7 µM in assay [1] (Table 4), 6.13 µM at PDK1 enzyme (Table 4) and 5.21 µM at Chk1 (Table 4).

For the molecule `Clc1cccc(-c2cc(Nc3ccc4c(c3)OCO4)n3ncnc3n2)c1` [Example 33], the results for the IC50 (in assay [1] (Table 1); on PDK1 enzyme (Table 1); on Chk1 (Table 1)) were 29 µM, over 200 µM and 23.9 µM, respectively.

For `Cc1cccc(-c2cc(Nc3ccc(CCO)cc3)nc3ncnn23)c1` [Example 107], the IC50 in assay [1] (Table 3) is over 200 µM; on PDK1 enzyme (Table 3) it was 14.7 µM; at Chk1 (Table 3) it was 42.2 µM.
